The numbers were not newly measured in US8247562B2, “Benzamide derivatives useful as histone deacetylase inhibitors” (Astrazeneca AB, priority 2002, dated 2012), which cites them from elsewhere.

One series concerns tumours in mice. The following applies: Finnin et al., Nature, 401, 188-193 (1999).
A further series has as its system rat fibroblasts. The following applies: Yoshida et al, Exper. Cell Res., 177, 122-131 (1988).

Take `CC(/C=C/C(=O)NO)=C\[C@@H](C)C(=O)c1ccc(N(C)C)cc1` [Trichostatin A]: the formation of tumours result in the series with tumours in mice was “prevent the formation of tumours in mice”. Also, in the series on rat fibroblasts, the cell cycle arrest result is “arrest of rat fibroblasts at the G1 and G2 phases of the cell cycle”.
